The source of these data is patent US5187082A, “Process for producing A83850 antibiotics” (Eli Lilly and Company, priority 1990, dated 1993).

Values after ≈ are worked out from the molar mass of the structure shown. Positions of bridges follow the written chain, without caps; N, C: chain ends. Non-standard residues stand in square brackets, D forms with d. Residues, ends and D or L forms follow the SMILES beside them. *: point of attachment. Ileψ(thiazoline)Cys = CC[C@H](C)[C@H](N)C1=N[C@H](C(=O)*)CS1; dOrn = NCCC[C@@H](N)C(=O)O

One assay deals with Eubacterium aerofaciens. The following applies: anaerobe, agar dilution, read after 24-hour incubation.
A further assay deals with Clostridium septicum. The following applies: anaerobe, agar dilution, read after 24-hour incubation. (In agar dilution the substance is mixed into plates at graded concentrations.)
Assay [1] relates to Fusobacterium necrophorum. The following applies: anaerobe, agar dilution, read after 24-hour incubation.
Assay [2] has as its system Peptostreptococcus intermedius. As to the kind of experiment: Activity against anaerobic bacteria, agar-dilution MIC. The following applies: Peptostreptococcus intermedius; anaerobe, agar dilution, read after 24-hour incubation. Format: cell-based.
For the next assay, the system named is Fusobacterium symbiosum. The following applies: anaerobe, agar dilution, read after 24-hour incubation.
Assay [3] has as its system Staphylococcus aureus X1.1. In kind it is cell-based. The following applies: Staphylococcus aureus X1.1; agar dilution. On the procedure: (§1) The MIC's in Table VII were determined by standard agar-dilution assays.
Assay [4] deals with Enterococcus faecalis 2041. In kind it is cell-based. The following applies: Enterococcus faecalis 2041; agar dilution. On the procedure: as §1
The test system of assay [5] is Staphylococcus epidermidis 222. In kind it is cell-based. The following applies: Staphylococcus epidermidis 222; agar dilution. On the procedure: as §1
The test system of another assay is Enterococcus faecium X66. In kind it is cell-based. The following applies: Enterococcus faecium X66; agar dilution. As for the experimental part:
as §1

In assay [6] the test system is Streptococcus pyogenes C203. Format: cell-based. The following applies: Streptococcus pyogenes C203; agar dilution. As for the experimental part:
as §1

The subject of assay [7] is Staphylococcus epidermidis 270. Format: cell-based. The following applies: Staphylococcus epidermidis 270; agar dilution. On the procedure:
as §1

Assay [8] concerns Staphylococcus aureus V41. Format: cell-based. The following applies: Staphylococcus aureus V41; agar dilution. As for the experimental part:
as §1

Assay [9] concerns Staphylococcus aureus X400. Format: cell-based. The following applies: Staphylococcus aureus X400; agar dilution. On the procedure: as §1
A further assay concerns Bacteriodes fragilis. As to the kind of experiment: Activity against anaerobic bacteria, agar-dilution MIC. Format: cell-based. The following applies: Bacteriodes fragilis; anaerobe, agar dilution, read after 24-hour incubation.
The subject of a further assay is Propionibacterium acnes. The description is as above. Format: cell-based. The following applies: Propionibacterium acnes; anaerobe, agar dilution, read after 24-hour incubation.
Assay [10] concerns Peptostreptococcus anaerobius. The description is as above. In kind it is cell-based. The following applies: anaerobe, agar dilution, read after 24-hour incubation.
Assay [11] has as its system Streptococcus pneumoniae Park 1. As to the kind of experiment: microbe, parasite or virus in culture. In kind it is cell-based. The following applies: Streptococcus pneumoniae Park 1; agar dilution. On the procedure:
as §1

In another assay the test system is Staphylococcus aureus. As to the kind of experiment: In vivo activity against experimentally-induced infection in mice. The following applies: doses administered subcutaneously to mice 1 and 4 hours postinfection. On the procedure: (§2) The A83850 antibiotics have also shown in vivo antimicrobial activity against experimentally-induced infections in laboratory animals. When two doses of test compound were administered to mice experimentally infected with the test organism, the activity observed was measured as an ED50 value [effective dose in mg/kg to protect 50% of the test animals: see Warren Wick, et al., J. Bacteriol. 81, 233-235 (1961)].
(§3) ^a mg/kg × 2; doses administered subcutaneously to mice 1 and 4

Another assay deals with Streptococcus pyogenes. The assay is described as above. The following applies: doses administered subcutaneously to mice 1 and 4 hours postinfection. On the procedure:
as §2, §3

The next assay relates to Streptococcus pneumoniae. The description is as above. The following applies: doses administered subcutaneously to mice 1 and 4 hours postinfection. As for the experimental part: as §2, §3
Assay [12] deals with Bacteriodes melaninogenicus. As to the kind of experiment: Activity against anaerobic bacteria, agar-dilution MIC. The following applies: Bacteriodes melaninogenicus; anaerobe, agar dilution, read after 24-hour incubation. In kind it is cell-based.
A further assay has as its system Clostridium perfringens. The following applies: anaerobe, agar dilution, read after 24-hour incubation.
For a further assay, the system named is Bacteriodes vulgatis. As to the kind of experiment: Activity against anaerobic bacteria, agar-dilution MIC. The following applies: Bacteriodes vulgatis; anaerobe, agar dilution, read after 24-hour incubation.
In assay [13] the test system is Peptococcus asaccharolyticus. The assay is described as above. The following applies: Peptococcus asaccharolyticus; anaerobe, agar dilution, read after 24-hour incubation.
The test system of the next assay is Clostridium difficile. Described as above. The following applies: Clostridium difficile; anaerobe, agar dilution, read after 24-hour incubation.
A further assay has as its system Bacteroides corrodens. The description is as above. The following applies: Bacteroides corrodens; anaerobe, agar dilution, read after 24-hour incubation. Format: cell-based.
For another assay, the system named is Peptococcus prevoti. The assay is described as above. The following applies: Peptococcus prevoti; anaerobe, agar dilution, read after 24-hour incubation.
Assay [14] has as its system Bacteriodes thetaiotaomicron. The assay is described as above. The following applies: Bacteriodes thetaiotaomicron; anaerobe, agar dilution, read after 24-hour incubation.
The test system of assay [15] is Culture A83850 (Amycolatopsis albus NRRL 18532). Kind of assay: Resistance of culture A83850 to antibiotics, sensitivity discs on seeded ISP No. 2 agar plates. In kind it is cell-based. The following applies: disc content printed per antibiotic. On the procedure:
Resistance to antibiotics was measured by padding antibiotic sensitivity discs onto the surface of seeded ISP No. 2 agar plates.

`CC(C)C[C@H](C(=O)N[C@H]1C(=O)N[C@@H](CC(N)=O)C(=O)N[C@H]2C(=O)N[C@H]3C(=O)N[C@H](C(=O)N[C@H](C(=O)O)c4cc(O)cc(O)c4-c4cc3ccc4O)[C@H](O)c3ccc(c(Cl)c3)Oc3cc2cc(c3O[C@@H]2O[C@H](CO)[C@@H](O)[C@H](O)[C@H]2O[C@H]2C[C@](C)(N)C(=O)[C@H](C)O2)Oc2ccc(cc2Cl)[C@H]1O)N(C)C` [A83850A]: the MIC against Eubacterium aerofaciens was determined as 2 µg/mL (≈ 1.37 µM); in the assay with Clostridium septicum, 2 µg/mL (≈ 1.37 µM); in assay [1] it was 1.0 µg/mL (≈ 0.684 µM); in assay [2], 2.0 µg/mL (≈ 1.37 µM); against Fusobacterium symbiosum, 4 µg/mL (≈ 2.74 µM); in assay [3], 1.0 µg/mL (≈ 0.684 µM). For the same compound, the MIC in assay [4] was determined as 8.0 µg/mL (≈ 5.47 µM); in [5], 2.0 µg/mL (≈ 1.37 µM); against Enterococcus faecium X66, 2.0 µg/mL (≈ 1.37 µM); in assay [6], 1.0 µg/mL (≈ 0.684 µM); in assay [7] it was 4.0 µg/mL (≈ 2.74 µM); in assay [8], 2.0 µg/mL (≈ 1.37 µM). For the same compound, the MIC in assay [9] is 2.0 µg/mL (≈ 1.37 µM); against Bacteriodes fragilis, 16.0 to 32.0 µg/mL; against Propionibacterium acnes it was 8.0 µg/mL (≈ 5.47 µM); in [10] it was 32 µg/mL (≈ 21.9 µM); in assay [11], 1.0 µg/mL (≈ 0.684 µM); in assay [12], 16 µg/mL (≈ 10.9 µM). Besides, the MIC is 2 µg/mL (≈ 1.37 µM) in the assay on Clostridium perfringens; 16 µg/mL (≈ 10.9 µM) in the assay on Bacteriodes vulgatis; 16 µg/mL (≈ 10.9 µM) in assay [13]; 4 µg/mL (≈ 2.74 µM) in the assay with Clostridium difficile; 32 µg/mL (≈ 21.9 µM) against Bacteroides corrodens; 16 µg/mL (≈ 10.9 µM) against Peptococcus prevoti. The same compound showed an MIC in [14] of 64 µg/mL (≈ 43.8 µM). Moreover, the “ED50 Value” amounted to 2.87 mg/kg × 2 with Staphylococcus aureus, 3.62 mg/kg × 2 in the assay with Streptococcus pyogenes and 2.73 mg/kg × 2 in the assay on Streptococcus pneumoniae.

Turning to `CC(C)C[C@H](C(=O)N[C@H]1C(=O)N[C@@H](CC(N)=O)C(=O)N[C@H]2C(=O)N[C@H]3C(=O)N[C@H](C(=O)N[C@H](C(=O)O)c4cc(O)cc(O)c4-c4cc3ccc4O)[C@H](O)c3ccc(c(Cl)c3)Oc3cc2cc(c3O[C@@H]2O[C@H](CO)[C@@H](O)[C@H](O)[C@H]2O[C@H]2C[C@](C)(N)[C@@H](O)[C@H](C)O2)Oc2ccc(cc2Cl)[C@H]1O)N(C)C` [Reduced A83850A], the MIC in assay [3] worked out at 2.0 µg/mL (≈ 1.37 µM); in [4] it was 8.0 µg/mL (≈ 5.47 µM); in assay [5] it was 4.0 µg/mL (≈ 2.73 µM); with Enterococcus faecium X66, 2.0 µg/mL (≈ 1.37 µM); in assay [6], 2.0 µg/mL (≈ 1.37 µM); in assay [7], 4.0 µg/mL (≈ 2.73 µM). Moreover, the MIC in assay [8] was 2.0 µg/mL (≈ 1.37 µM); in assay [9] it was 2.0 µg/mL (≈ 1.37 µM); in assay [11], 0.25 µg/mL (≈ 0.171 µM). The results for the “ED50 Value” with Staphylococcus aureus, with Streptococcus pyogenes and with Streptococcus pneumoniae were 7.10 mg/kg × 2, 2.30 mg/kg × 2 and 3.88 mg/kg × 2, respectively.

Take `CN[C@H](CC(C)C)C(=O)N[C@H]1C(=O)N[C@@H](CC(N)=O)C(=O)N[C@H]2C(=O)N[C@H]3C(=O)N[C@H](C(=O)N[C@H](C(=O)O)c4cc(O)cc(O)c4-c4cc3ccc4O)[C@H](O)c3ccc(c(Cl)c3)Oc3cc2cc(c3O[C@@H]2O[C@H](CO)[C@@H](O)[C@H](O)[C@H]2O[C@H]2C[C@](C)(N)[C@@H](O)[C@H](C)O2)Oc2ccc(cc2Cl)[C@H]1O` [Reduced A83850B]: the MIC in assay [3] is 1.0 µg/mL (≈ 0.69 µM); in assay [4], 4.0 µg/mL (≈ 2.76 µM); in assay [5], 2.0 µg/mL (≈ 1.38 µM); with Enterococcus faecium X66, 1.0 µg/mL (≈ 0.69 µM); in [6], 0.5 µg/mL (≈ 0.345 µM); in assay [7], 2.0 µg/mL (≈ 1.38 µM). Also, the figures for the MIC in [8], in assay [9] and in assay [11] were 1.0 µg/mL (≈ 0.69 µM), 1.0 µg/mL (≈ 0.69 µM) and 0.125 µg/mL (≈ 0.0863 µM), respectively. The “ED50 Value” with Staphylococcus aureus is 2.12 mg/kg × 2; with Streptococcus pyogenes, 1.36 mg/kg × 2; with Streptococcus pneumoniae, 1.99 mg/kg × 2.

As to `CC[C@H](C)[C@H](N)C1=N[C@H](C(=O)N[C@@H](CC(C)C)C(=O)N[C@H](CCC(=O)O)C(=O)N[C@H](C(=O)N[C@H]2CCCCNC(=O)[C@H](CC(N)=O)NC(=O)[C@@H](CC(=O)O)NC(=O)[C@H](Cc3cnc[nH]3)NC(=O)[C@@H](Cc3ccccc3)NC(=O)[C@H]([C@@H](C)CC)NC(=O)[C@@H](CCCN)NC2=O)[C@@H](C)CC)CS1` [bacitracin] ({Ileψ(thiazoline)Cys}-L[dE]IK[dOrn]I[dF]H[dD]N; lactam 4-C), the “Resistance or inhibition of culture A83850 by antibiotic disc” value (shortened to “Resistance or inhibition”) in assay [15] was “resistant”.

As for `CC(=O)OCC1=C(C(=O)O)N2C(=O)[C@@H](NC(=O)Cc3cccs3)[C@H]2SC1` [cephalothin], the “Resistance or inhibition” value in assay [15] is “inhibited”.

On to `CCC[C@@H]1C[C@@H](C(=O)N[C@@H]([C@H]2O[C@H](SC)[C@H](O)[C@@H](O)[C@H]2O)[C@@H](C)O)N(C)C1` [lincomycin], for which the “Resistance or inhibition” value in [15] is reported as “inhibited”.

With `CO[C@H]1C[C@H](O[C@H]2[C@H](C)[C@@H](O[C@@H]3O[C@H](C)C[C@H](N(C)C)[C@H]3O)[C@@H](C)C[C@@]3(CO3)C(=O)[C@H](C)[C@@H](O)[C@@H](C)[C@@H](C)OC(=O)[C@@H]2C)O[C@@H](C)[C@@H]1O` [oleandomycin], the “Resistance or inhibition” value in assay [15] was “resistant”.

As for `CC1(C)S[C@@H]2[C@H](NC(=O)Cc3ccccc3)C(=O)N2[C@H]1C(=O)O` [penicillin], in assay [15], the “Resistance or inhibition” value was “inhibited”.

In the case of `CO[C@H]1/C=C/O[C@@]2(C)Oc3c(C)c(O)c4c(O)c(c(/C=N/N5CCN(C)CC5)c(O)c4c3C2=O)NC(=O)/C(C)=C\C=C\[C@H](C)[C@H](O)[C@@H](C)[C@@H](O)[C@@H](C)[C@H](OC(C)=O)[C@@H]1C` [rifampin], in assay [15], the “Resistance or inhibition” value was “resistant”.

Turning to `[H]/N=C(/N)N[C@H]1[C@H](O)[C@@H](O)[C@H](O[C@@H]2O[C@@H](C)[C@](O)(C=O)[C@H]2O[C@@H]2O[C@@H](CO)[C@H](O)[C@@H](O)[C@@H]2NC)[C@@H](N/C(N)=N\[H])[C@@H]1O` [streptomycin], the “Resistance or inhibition” value in assay [15] is reported as “inhibited”.

Consider `CN(C)[C@@H]1C(O)=C(C(N)=O)C(=O)[C@@]2(O)C(O)=C3C(=O)c4c(O)cccc4[C@@](C)(O)[C@H]3C[C@@H]12` [tetracycline], for which the “Resistance or inhibition” value in [15] was “resistant”.

Regarding `NC[C@H]1O[C@H](O[C@H]2[C@H](O)[C@@H](O[C@H]3O[C@H](CO)[C@@H](O)[C@H](N)[C@H]3O)[C@H](N)C[C@@H]2N)[C@H](N)C[C@@H]1O` [tobramycin], the “Resistance or inhibition” value in [15] is “inhibited”.

Regarding gentamicin, the “Resistance or inhibition” value in assay [15] is listed as “inhibited”.

As to neomycin, the “Resistance or inhibition” value in assay [15] was “resistant”.
